In ChEMBL document CHEMBL1137297, “Synthesis and pharmacological evaluation of novel octahydro-1H-pyrido[1,2-a]pyrazine as mu-opioid receptor antagonists” (J Med Chem, 2006):

Columns and labels:
Mu-type opioid receptor [1] = target: T1, Mu-type opioid receptor (Homo sapiens, UniProt P35372); test: Antagonist activity assessed as inhibition of loperamide-stimulated [35S]GTPgammaS binding to human mu opioid receptor expressed in CHO cells; type: functional, cell-based
Mu-type opioid receptor [2] = target: T1, Mu-type opioid receptor; test: Displacement of [3H]diprenorphine from human cloned mu opioid receptor expressed in CHO cells; type: cell-based
[3] = target: T2, Delta-type opioid receptor (Homo sapiens, UniProt P41143); test: Displacement of [3H]diprenorphine from human cloned delta opioid receptor expressed in CHO cells; type: cell-based
T2 sequence (P41143 whole entry): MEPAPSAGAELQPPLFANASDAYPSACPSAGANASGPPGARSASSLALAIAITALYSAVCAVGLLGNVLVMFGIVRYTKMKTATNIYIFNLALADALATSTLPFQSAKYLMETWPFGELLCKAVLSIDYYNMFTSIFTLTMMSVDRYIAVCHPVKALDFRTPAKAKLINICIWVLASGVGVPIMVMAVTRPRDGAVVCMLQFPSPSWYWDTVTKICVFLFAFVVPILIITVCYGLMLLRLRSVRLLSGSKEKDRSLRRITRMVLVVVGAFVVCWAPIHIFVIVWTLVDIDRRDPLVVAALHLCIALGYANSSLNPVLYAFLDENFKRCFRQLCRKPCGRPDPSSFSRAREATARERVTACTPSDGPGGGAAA

[4] = target: T3, Kappa-type opioid receptor (Homo sapiens, UniProt P41145); test: Displacement of [3H]diprenorphine from human cloned kappa opioid receptor expressed in CHO cells; type: cell-based
T3 sequence (P41145 whole entry): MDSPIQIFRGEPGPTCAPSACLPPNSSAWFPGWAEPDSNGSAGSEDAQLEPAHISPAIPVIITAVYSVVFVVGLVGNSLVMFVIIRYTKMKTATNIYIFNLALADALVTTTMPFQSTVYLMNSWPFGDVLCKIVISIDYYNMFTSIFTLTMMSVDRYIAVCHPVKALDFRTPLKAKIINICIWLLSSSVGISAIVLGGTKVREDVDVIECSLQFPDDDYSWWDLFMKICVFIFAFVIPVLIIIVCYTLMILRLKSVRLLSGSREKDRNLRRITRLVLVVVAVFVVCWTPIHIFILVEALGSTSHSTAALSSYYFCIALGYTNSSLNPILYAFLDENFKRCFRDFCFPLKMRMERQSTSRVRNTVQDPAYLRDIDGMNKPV

[5] = target: T2, Delta-type opioid receptor; test: Inhibition of [3H]diprenorphine binding to human cloned delta opioid receptor expressed in CHO cells at 10 uM; type: cell-based
[6] = target: T2, Delta-type opioid receptor; test: Antagonist activity assessed as inhibition of BW373U86-stimulated [35S]GTP-gamma-S binding to human delta opioid receptor expressed in CHO cells; type: functional, cell-based
[7] = target: T3, Kappa-type opioid receptor; test: Antagonist activity assessed as inhibition of U50488-stimulated [35S]GTP-gamma-S binding to human kappa opioid receptor expressed in CHO cells; type: functional, cell-based

T1 sequence (P35372 whole entry): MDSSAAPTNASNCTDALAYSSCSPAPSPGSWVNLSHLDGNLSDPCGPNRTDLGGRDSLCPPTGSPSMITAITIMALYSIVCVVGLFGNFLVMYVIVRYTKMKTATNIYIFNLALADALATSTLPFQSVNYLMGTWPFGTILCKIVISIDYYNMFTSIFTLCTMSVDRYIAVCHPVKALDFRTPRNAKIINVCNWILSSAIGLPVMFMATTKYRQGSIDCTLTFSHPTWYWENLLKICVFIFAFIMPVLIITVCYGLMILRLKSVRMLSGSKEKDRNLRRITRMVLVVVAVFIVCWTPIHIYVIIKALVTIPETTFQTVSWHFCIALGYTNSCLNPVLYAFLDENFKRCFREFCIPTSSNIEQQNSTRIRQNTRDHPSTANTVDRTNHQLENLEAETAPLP

Row | Structure (SMILES) | IC50 (Mu-type opioid receptor [1]) [nM] | Ki (Mu-type opioid receptor [2]) [nM] | Ki [3] [nM] | Ki [4] [nM] | inhibition [5] [%] | IC50 [6] [nM] | IC50 [7] [nM]
1 | C[C@H]1CN2CCN(Cc3ccc(Cl)cc3)C[C@H]2C[C@@]1(C)c1cccc(O)c1 | 42 | 17 | 420 | 280 |  |  | 
2 | C[C@H]1CN2CCN(c3ccccc3)C[C@H]2C[C@@]1(C)c1cccc(O)c1 | 54 | 220 | 960 | 3700 |  |  | 
3 | C[C@H]1CN2CCN(Cc3cccc4ccccc34)C[C@H]2C[C@@]1(C)c1cccc(O)c1 | 16 | 3.5 |  | 230 | 60 |  | 
4 | C[C@H]1CN2C[C@H](Cc3ccccc3)NC[C@H]2C[C@@]1(C)c1cccc(O)c1 | 2.8 |  |  | 86 |  | 33 | 16
5 | C[C@H]1CN2C[C@H](c3ccccc3)NC[C@H]2C[C@@]1(C)c1cccc(C(N)=O)c1 | 1.5 | 1.8 | 60 | 11 |  | 110 | 2.3
6 | C[C@H]1CN2C[C@H](c3ccccc3)N(Cc3ccccc3)C[C@H]2C[C@@]1(C)c1cccc(O)c1 | 40 | 4.7 | 340 | 120 |  | 1300 | 99
7 | C[C@H]1CN2CCN(Cc3ccsc3)C[C@H]2C[C@@]1(C)c1cccc(O)c1 | 1.4 | 3 | 340 | 38 |  |  | 
8 | C[C@H]1CN2CCN(Cc3ccc4ccccc4c3)C[C@H]2C[C@@]1(C)c1cccc(O)c1 | 74 | 90 |  | 980 | 49 |  | 
9 | Cc1ccccc1CN1CCN2C[C@H](C)[C@](C)(c3cccc(O)c3)C[C@@H]2C1 | 1.8 | 0.98 | 89 | 30 |  | 62 | 15
10 | C[C@H]1CN2C[C@@H](Cc3ccccc3)NC[C@H]2C[C@@]1(C)c1cccc(O)c1 | 22 | 25 | 410 | 130 |  |  | 
11 | C[C@H]1CN2C[C@@H](c3ccccc3)NC[C@H]2C[C@@]1(C)c1cccc(O)c1 | 52 | 180 | 660 | 430 |  |  | 
12 | C[C@H]1CN2C[C@H](C3CCCCC3)NC[C@H]2C[C@@]1(C)c1cccc(O)c1 | 1.3 | 2.7 | 68 | 16 |  | 28 | 1.2
13 | C[C@H]1CN2CCN(CCCc3ccccc3)C[C@H]2C[C@@]1(C)c1cccc(O)c1 | 13 | 36 | 960 | 950 |  |  | 
14 | C[C@H]1CN2CCN(CC3CCCCC3)C[C@H]2C[C@@]1(C)c1cccc(O)c1 | 1.1 | 1.1 | 65 | 84 |  | 85 | 36
15 | C[C@H]1CN2CCN(Cc3cccs3)C[C@H]2C[C@@]1(C)c1cccc(O)c1 | 0.63 | 1.4 | 260 | 37 |  | 340 | 6.6
16 | C[C@H]1CN2CCN(Cc3cccc(Cl)c3)C[C@H]2C[C@@]1(C)c1cccc(O)c1 | 1.8 | 1.5 | 360 | 83 |  |  | 
17 | C[C@H]1CN2CCN(Cc3ccccc3)C[C@H]2C[C@@]1(C)c1cccc(O)c1 | 0.73 | 1.2 |  | 43 |  | 150 | 8.4
18 | C[C@H]1CN2CCN(Cc3ccoc3)C[C@H]2C[C@@]1(C)c1cccc(O)c1 | 6.1 | 12 | 740 | 120 |  |  | 
19 | C[C@H]1CN2CCN(Cc3ccc(O)cc3)C[C@H]2C[C@@]1(C)c1cccc(O)c1 | 5.7 | 10 | 220 | 270 |  |  | 
20 | C[C@H]1CN2C[C@H](c3ccccc3)CC[C@H]2C[C@@]1(C)c1cccc(O)c1 |  |  |  |  |  | 51 | 3.2

Row | Structure (SMILES) | IC50 (Mu-type opioid receptor [1]) [nM] | Ki (Mu-type opioid receptor [2]) [nM] | Ki [3] [nM] | Ki [4] [nM] | inhibition [5] [%] | IC50 [6] [nM] | IC50 [7] [nM]
21 | C[C@H]1CN2CCN(Cc3cccc(OCc4ccccc4)c3)C[C@H]2C[C@@]1(C)c1cccc(O)c1 | 22 | 13 |  | 33 | 43 |  | 
22 | C[C@H]1CN2C[C@H](c3ccccc3)N(C)C[C@H]2C[C@@]1(C)c1cccc(O)c1 |  |  | 2300 | 13 |  | 580 | 2.4
23 | C[C@H]1CN2CCN(C(=O)c3ccccc3)C[C@H]2C[C@@]1(C)c1cccc(O)c1 | 2.1 |  |  | 180 |  | 14 | 50
24 | C[C@H]1CN2CCCN(Cc3ccccc3)C[C@H]2C[C@@]1(C)c1cccc(O)c1 | 15 | 160 | 2900 | 540 |  |  | 
25 | C[C@H]1CN2C[C@H](c3ccccc3)N(Cc3ccccc3)C[C@H]2C[C@@]1(C)c1cccc(C(N)=O)c1 | 28 | 17 | 1100 | 460 |  |  | 
26 | CC(C)[C@H]1CN2C[C@H](C)[C@](C)(c3cccc(O)c3)C[C@@H]2CN1 | 66 | 380 |  | 57 | 15 |  | 
27 | C[C@H]1CN2C[C@H](c3ccccc3)NC[C@H]2C[C@@]1(C)c1cccc(O)c1 | 1.1 |  |  |  |  | 98 | 3.2
28 | CC(=O)N1C[C@H]2C[C@@](C)(c3cccc(O)c3)[C@@H](C)CN2C[C@@H]1c1ccccc1 | 220 | 94 |  | 620 | 57 |  | 
29 | C[C@H]1CN2CCN(Cc3cccc(Oc4ccccc4)c3)C[C@H]2C[C@@]1(C)c1cccc(O)c1 | 9.7 | 21 |  | 24 | 55 |  | 
30 | C[C@H]1CN2CCN(Cc3ccccn3)C[C@H]2C[C@@]1(C)c1cccc(O)c1 | 13 | 20 | 1100 | 390 |  |  | 
31 | C[C@H]1CN2CCN(Cc3cccc(O)c3)C[C@H]2C[C@@]1(C)c1cccc(O)c1 | 4.5 | 4.3 | 310 | 56 |  |  | 
32 | C[C@H]1CN2CCN(C(=O)Nc3ccccc3)C[C@H]2C[C@@]1(C)c1cccc(O)c1 | 16 | 31 | 540 | 420 |  |  | 
33 | Cc1ccc(CN2CCN3C[C@H](C)[C@](C)(c4cccc(O)c4)C[C@@H]3C2)cc1 | 9.5 | 14 | 350 | 300 |  |  | 
34 | C[C@H]1CN2CCN(Cc3ccco3)C[C@H]2C[C@@]1(C)c1cccc(O)c1 | 7.2 | 7.4 | 1500 | 430 |  |  | 
35 | C[C@H]1CN2CCN(C(=O)Cc3ccccc3)C[C@H]2C[C@@]1(C)c1cccc(O)c1 | 6.7 | 17 | 71 | 540 |  |  | 
36 | Cc1cccc(CN2CCN3C[C@H](C)[C@](C)(c4cccc(O)c4)C[C@@H]3C2)c1 | 1.5 | 1.3 | 510 | 130 |  |  | 
37 | COC(=O)c1cccc(CN2CCN3C[C@H](C)[C@](C)(c4cccc(O)c4)C[C@@H]3C2)c1 | 6.9 | 11 |  | 140 | 43 |  | 
38 | C[C@H]1CN2CCN(Cc3cccnc3)C[C@H]2C[C@@]1(C)c1cccc(O)c1 | 7.5 | 13 | 840 | 400 |  |  | 
39 | C[C@H]1CN2CCN(CCc3ccccc3)C[C@H]2C[C@@]1(C)c1cccc(O)c1 | 2 |  |  |  |  | 310 | 20
